From a melting point compilation (Tetko et al.; mined from patent text by program, amines drawn as free bases though some values may be those of a salt)

`CC1(C)C=C(c2ccccn2)c2cc(Cl)ccc2OC1` showed a melting point of 100 °C.
Work on `O=C(c1ccc(F)cc1F)N1Cc2cccnc2Nc2ccccc21` yielded a melting point of 161 to 163 °C.
`CNC(Cc1ccccc1N)c1ccncc1` (stereo not drawn) showed a melting point of 69 to 71 °C.
For `CC(C)Nc1cccnc1N1CCN(C(=O)c2ccc(C(=O)N3CCN(CCO)CC3)cc2)CC1`, the melting point was 148 to 149 °C.
For `CNc1nc(-c2cccc(CCc3ccccc3)c2)c2cc(OC)c(OC)cc2n1`, the melting point was 95 to 97 °C.
Work on `Nc1ccccc1C(=O)NCCCN1CCC(C(=O)c2ccc(F)cc2)CC1` yielded a melting point of 113 °C.
`O=C(c1ccccc1)c1ccc2nccnc2c1` showed a melting point of 120 °C.
`CC(=O)Nc1nc(NC(C)=O)c2[nH]cnc2n1` gave a melting point of 293 to 295 °C.
`Cc1cc(C)cc(S(=O)c2cccc(F)c2C#N)c1` (stereo not drawn) showed a melting point of 146 to 147 °C.
`O=C1C(=O)c2ccc(Cl)cc2C2=C1SCC1(CCN(CC(O)Cc3ccccc3)CC1)O2` (stereo not drawn) showed a melting point of 92 to 96 °C.
Compound `Cc1nn(-c2cc(OC(C)C(=O)NS(=O)(=O)c3cccc4c3OC(C)(C)C4)c(Cl)cc2F)c(=O)n1C(F)F` (stereo not drawn) has a melting point of 198 to 201 °C.
`COc1ccc(-n2nc(C#N)cc2-c2ccc(S(C)(=O)=O)cc2)cc1F` gave a melting point of 192 to 193 °C.
`CS(=O)(=O)CC(=O)CCc1ccccc1` showed a melting point of 97.6 to 98.4 °C.
`CCCCOc1ccc(S(=O)(=O)C2(C(=O)NO)CCN(Cc3ccccn3)CC2)cc1` gave a melting point of 118 °C.
`CC1(C)C2CC[C@]1(C)C(=O)C(C(=O)Nc1ccc(Cl)c(Cl)c1)C2=O` (stereo partly drawn) gave a melting point of 88 to 90 °C.
In the case of `C=CCNc1nc(C2C(=O)Nc3ccc(Br)cc32)c2cn(C)nc2n1` (stereo not drawn), the melting point is reported as 336 to 340 °C.
Compound `C#Cc1ccc(C(=O)Cl)cc1` has a melting point of 32 to 34 °C.
In the case of `CCCC(=O)NCC1CCc2c(OC)ccc3cccc1c23` (stereo not drawn), the melting point is reported as 100 °C.
In the case of `O=C1CC2=C(CCN1)c1ccccc1Sc1ccccc12`, the melting point is reported as 195 to 198 °C.
Compound `NC(=O)c1nc(Cl)n2c1CN=C(c1ccccc1Cl)c1cc(Cl)ccc1-2` has a melting point of 285 to 288 °C.
In the case of `Nn1nc(-c2ccc(Cl)cc2)cc1OCCN1CCCC1`, the melting point is reported as 131 °C.
Work on `CCNC(=S)NC1CCC(=O)c2ccccc21` (stereo not drawn) yielded a melting point of 134 to 138 °C.
With `OCc1ccccc1NCc1cc2c(cc1O)CCO2` the melting point was 149 to 150 °C.
In the case of `OCc1cnc2sc3c(n12)CCCC3`, the melting point is reported as 182 to 183 °C.
With `CC(C)Cn1c(CONC(=O)NC(C)C)nc2c(N)nc3ccccc3c21` the melting point was 218 to 219 °C.
In the case of `O=[N+]([O-])c1ccc(F)c(-c2ccc(CO)cc2)c1`, the melting point is reported as 106 to 108 °C.
With `O=c1c2ccc(Cl)cc2[nH]c2c(O)nn(Cc3cccc(-c4nnn[nH]4)c3)c(=O)c12` the melting point was greater than 275 °C.
For `O=C(NCCCCCCCCn1ccnc1)c1cc2cc(Cl)ccc2[nH]1`, the melting point was 187 to 189 °C.
Compound `CC(C)(Oc1ccc(Cl)cc1)C(=O)Cn1cncn1` has a melting point of 101 to 103 °C.
`Cc1cc(C)cc(N2CCN(Cc3ncn(C(c4ccccc4)(c4ccccc4)c4ccccc4)c3C)C2=O)c1` gave a melting point of 199 to 202 °C.
`COc1ccc(N2CCOCC2)c2sc(NC(=O)N(C)[C@H]3CC[C@@H](OC)CC3)nc12` gave a melting point of 198 to 200 °C.
Work on `COc1ccc(S(=O)(=O)C(C)(Cc2ccccc2Br)C(=O)NO)cc1` (stereo not drawn) yielded a melting point of 93 to 96 °C.
For `CC(C)C=Cc1c(C(C)C)nc(C(C)C)c(CO)c1-c1ccc(F)cc1`, the melting point was 112 °C.
With `CN1C(=O)C(NC(=O)Oc2ccc([N+](=O)[O-])cc2)N=C(c2ccccc2F)c2ccccc21` (stereo not drawn) the melting point was 202 to 204 °C.
Work on `O=C(O)c1oc(-c2ccccc2Cl)cc(=O)c1Br` yielded a melting point of 205 to 207 °C.
For `CC(C)=NOCc1nc2c(N)nc3cccnc3c2n1CC(C)(C)O`, the melting point was 198 to 200 °C.
`Fc1cccc(CC2(Cc3ccncc3)c3cccnc3-c3ncccc32)n1` gave a melting point of 180 to 182 °C.
For `O=C(O)CNCCOc1cccc(CCNS(=O)(=O)c2ccc(Cl)cc2)c1`, the melting point was 205 to 207 °C.
Compound `CCCNC(=O)C(C)Cc1ccc2c(c1)c(Cc1ccc(C(=O)NS(=O)(=O)c3ccccc3C)cc1OC)cn2CCC` (stereo not drawn) has a melting point of 95 to 113 °C.
`Cn1nnnc1SCC1=C(C(=O)O)N2C(=O)C(NC(=O)Cn3ccnc3S(C)(=O)=O)C2SC1` (stereo not drawn) gave a melting point of 230 °C.
`C=C(CS(=O)(=O)c1ccccc1)c1ccccc1` gave a melting point of 105 °C.
Compound `COc1ccc2c(c1)C(=O)NCCS2` has a melting point of 164 to 166 °C.
For `CC(=O)SCC(Cc1ccccc1)C(=O)NN1CCSCC1` (stereo not drawn), the melting point was 138 °C.
In the case of `CC(C)c1cccc(S(=O)(=O)n2c(CCCCC(=O)O)cc3cc(C(F)(F)F)ccc32)c1`, the melting point is reported as 119 °C.
For `Cc1cc(OCCC[Si](C)(C)C)c(Cl)cc1N(C#N)C=N`, the melting point was 143 to 144 °C.
In the case of `O=C1NCCc2ccc(OCCCCN3CCN(c4cccc(Cl)c4Cl)CC3)nc2N1`, the melting point is reported as 197 to 199 °C.
Compound `CCCCc1nc2ccc(C(=O)O)cc2n1Cc1ccc(C(=O)O)cc1` has a melting point of 290 °C.
For `COC(=O)[C@H](Cc1c[nH]c2ccccc12)N(CCN(CC(=O)OC(C)(C)C)CC(=O)OC(C)(C)C)CCN(CC(=O)OC(C)(C)C)CC(=O)OC(C)(C)C`, the melting point was 71 °C.
`CCN(CC)Cc1cnc2c(C)c(NC(=O)c3ccc(-c4ccc(F)cc4)cc3)ccc2c1` showed a melting point of 155 to 156 °C.
Work on `C[C@@H]1[C@@H](S(=O)(=O)c2ccccc2)[C@@H]2O[C@@H]2C[C@@H]1O` yielded a melting point of 148 °C.
For `Cc1nc(NC(=O)c2cnn3c(C(F)(F)F)cc(-c4ccc(C(F)(F)F)cc4)nc23)sc1S(=O)(=O)N(C)CCO`, the melting point was 266 °C.
`CC(C)Cc1ccc(C(C)C(=O)NCCN(O)C(N)=O)cc1` (stereo not drawn) showed a melting point of 150 to 152 °C.
Compound `COc1cc(NC(C)=O)ccc1N1CCN(CCCNc2c(C)c(=O)n(C)c(=O)n2C)CC1` has a melting point of 178 to 180 °C.
With `COc1ccc(CCCNC(=O)c2coc(-c3ccc(/C(=C\CCCCC(=O)O)c4cccnc4)cc3)n2)cc1` the melting point was 49 to 58 °C.
`CCCCCCCCCCCCCCCCOC(=O)C=CC(=O)NC(N)=O` gave a melting point of 106 °C.
For `Fc1ccc2[nH]c(CN3C[C@@H]4C[C@H]3CN4c3ccccn3)cc2c1`, the melting point was 211 to 214 °C.
`COc1ccc(C(Cc2ccncc2)c2ccc(CO)cc2)cc1OC1CCCC1` (stereo not drawn) showed a melting point of 179 to 182 °C.
Work on `CC(C)=CCn1c(C)cnc1[N+](=O)[O-]` yielded a melting point of 78 to 79 °C.
`COC(=O)C(=[N+]=[N-])c1ccc(S(C)(=O)=O)c(Cl)c1` showed a melting point of 103 to 106 °C.
Compound `CN(C)c1nc(NCc2ccc(NC(=O)c3ccc(F)cc3)cc2)c2ccc(-c3ccccc3C=O)cc2n1` has a melting point of 128 °C.
Work on `NC(=O)Nc1cccc(CO)c1` yielded a melting point of 188 to 202 °C.
`COc1ccc(-c2cc3cc(F)c(F)cc3[nH]2)cc1N` gave a melting point of 210 to 211 °C.
`Nc1c(Cl)c(C(=O)O)nc(Cl)c1Br` showed a melting point of 201 to 202 °C.
Compound `COc1ccc(C(O)(CN2CCNC2=O)c2ccccc2)cc1OC` (stereo not drawn) has a melting point of 154 °C.
In the case of `CN1CCN(c2cc3c(cc2F)c(=O)c(C(=O)O)cn3C2CC2)CC1c1ccco1` (stereo not drawn), the melting point is reported as 122 to 124 °C.
Compound `Cc1cccc(C(=O)Nc2ccc3c(c2)CC(N(C)Cc2ccccn2)C3)c1-c1ccc(C(F)(F)F)cc1` (stereo not drawn) has a melting point of 105 to 115 °C.
Work on `N#Cc1ccc([C@H]2CC[C@H](O)CC2)cc1` yielded a melting point of 120 to 122 °C.
For `Cc1ccc(CC(CC(=O)Oc2ccc([N+](=O)[O-])cc2)C(=O)Oc2ccc([N+](=O)[O-])cc2)cc1` (stereo not drawn), the melting point was 97 to 98 °C.
In the case of `CCN(C=C(C#N)C#N)c1cc(C(F)(F)F)cc(C(F)(F)F)c1`, the melting point is reported as 118 to 120 °C.
`O=C(Oc1ccccc1)OC1CN(C(=O)Oc2ccccc2)CCC1c1ccccc1` (stereo not drawn) showed a melting point of 153 to 154 °C.
Work on `CCC1CC2C3CCC4=CC(=O)CCC4=C3CCC2(C)C1O` (stereo not drawn) yielded a melting point of 124 to 126 °C.
In the case of `CCN1CCN(C(C(=O)N(C)CCO)c2ccc(Nc3nc(-c4cccc(NC(=O)c5cc6c(s5)CCCCC6)c4C)cn(C)c3=O)cc2)CC1` (stereo not drawn), the melting point is reported as 163 to 165 °C.
Work on `O=[N+]([O-])c1ccc2nc(Cl)c(Cc3ccccc3)cc2c1` yielded a melting point of 159 to 161 °C.
`CCOP(=O)(OCC)C(C)(C)NC(=O)c1cccc([N+](=O)[O-])c1` gave a melting point of 95 to 96 °C.
In the case of `CC(=O)OC1CSC(Oc2cccnc2-c2ccoc2)C(OC(C)=O)C1OC(C)=O` (stereo not drawn), the melting point is reported as 185 °C.
Work on `Cn1ccnc1-c1ccc(C(=O)CN=[N+]=[N-])cc1` yielded a melting point greater than 250 °C.
`CCc1cccc2c3c([nH]c12)C(CC)(CCOC(C)=O)OCC3` (stereo not drawn) showed a melting point of 126 to 127 °C.
In the case of `CCOC(=O)C=C1CN=C(c2ccccc2F)c2cc(Cl)ccc2N1`, the melting point is reported as 109 to 111 °C.
`CCCS(=O)(=O)N=C(N[N+](=O)[O-])SC` gave a melting point of 91 to 93 °C.
Compound `C=C(C)C(=O)OCCc1ccc(-c2ccc(OC(=O)C(=C)C)cc2)cc1` has a melting point of 108 °C.
With `CC(COC(=O)C(=O)Nc1nc(-c2ccccc2)cs1)c1ccccc1` (stereo not drawn) the melting point was 140 to 141 °C.
`O=S(=O)(F)C=CNc1ccc(Cl)cc1` showed a melting point of 61 to 63 °C.
With `OC(CCc1ccccc1)c1cnc2sc3c(n12)CCCCCC3` (stereo not drawn) the melting point was 123 to 124 °C.
With `O=C(c1ccc(Cl)cc1)c1cccc([N+](=O)[O-])c1N1CCCCC1` the melting point was 141 °C.
Work on `CC(C)(C)OC(=O)Oc1ccc(C(C(=O)OC(c2ccccc2)c2ccccc2)N2CC(NC(=O)OCc3ccccc3)C2=O)cc1` (stereo not drawn) yielded a melting point of 153 to 154 °C.
`CC(C)(C)NC(=O)c1ccc2ccccc2c1` showed a melting point of 155 to 159 °C.
For `COC(=O)c1ccc(Br)cc1OC(=S)N(C)C`, the melting point was 118 °C.
Compound `Nc1nc(-c2cccc3ccccc23)co1` has a melting point of 155 to 162 °C.
`COc1ccc(-c2[nH]nc3c2C(=O)c2c(NC(=O)Cc4ccccc4OC)cccc2-3)cc1` showed a melting point of 255 °C.
For `COc1ccc2cccc(N3C(=O)CN(CC#N)CC3=O)c2c1`, the melting point was 204 °C.
With `COc1ccc(-c2nc3ccc(C(C)(C)CNS(C)(=O)=O)cc3[nH]2)cc1` the melting point was 146 to 148 °C.
With `CCSCCCCCSCCCCC(=O)O` the melting point was 49.5 to 50 °C.
In the case of `CC(=O)Nc1c([N+](=O)[O-])cnn1-c1c(F)c(F)c(C(F)(F)F)c(F)c1F`, the melting point is reported as 136 to 138 °C.
For `CCC1c2cccn2-c2cc(F)c(F)cc2N1S(=O)(=O)c1ccc(O)cc1` (stereo not drawn), the melting point was 177 to 179 °C.
`O=C(N[C@H](CCCO)c1nc(-c2ccccc2)c(-c2ccccc2)o1)OCc1ccccc1` showed a melting point of 72.3 to 75.1 °C.
`COCOc1ccc(C=CC(=O)c2ccc(OCc3ccccc3)cc2O)c(OCc2ccccc2)c1` showed a melting point of 147 to 148 °C.
With `CCOC(=O)c1cnn2c1nc(Cl)c1cnc3c(cnn3CC)c12` the melting point was 170 to 172 °C.
For `CC1(C)CCC(C)(C)c2cc(C(=O)c3cccc(I)c3)ccc21`, the melting point was 130 to 131 °C.
